From ChEMBL document CHEMBL4138141, “Rapid generation of a novel DPP-4 inhibitor with long-acting properties: SAR study and PK/PD evaluation” (Eur J Med Chem, 2017)

Key:
[1] = Half life in human liver microsomes at […] by LC-MS/MS analysis; assay type: ADME, microsome
[2] = Half life in rat liver microsomes at […] by LC-MS/MS analysis; assay type: ADME, microsome
[3] = Apparent volume of distribution during terminal phase in Sprague-Dawley rat at 25 mg/kg, po or 5 mg/kg, iv administered as single dose by LC-MS/MS analysis; assay type: ADME, organism-based; settings: in vivo, read-out: Vz/F
[4] = Tmax in Sprague-Dawley rat at 25 mg/kg, po or 5 mg/kg, iv administered as single dose by LC-MS/MS analysis; assay type: ADME, organism-based; settings: in vivo
Rattus norvegicus [5] = experiment: Clearance in Sprague-Dawley rat at 25 mg/kg, po or 5 mg/kg, iv administered as single dose by LC-MS/MS analysis; assay type: ADME, organism-based; settings: in vivo
[6] = Half life in Sprague-Dawley rat at 25 mg/kg, po administered as single dose by LC-MS/MS analysis; assay type: ADME, organism-based; settings: in vivo
Rattus norvegicus [7] = experiment: AUC (0 to t) in Sprague-Dawley rat at 25 mg/kg, po administered as single dose by LC-MS/MS analysis; assay type: ADME, organism-based; settings: in vivo
Rattus norvegicus [8] = experiment: Oral bioavailability in Sprague-Dawley rat at 25 mg/kg administered as single dose by LC-MS/MS analysis; assay type: ADME, organism-based; settings: in vivo
[9] = Metabolic stability in human liver microsomes assessed as parent compound remaining at […] incubated for 5 mins measured up to 60 mins by LC-MS/MS analysis; assay type: ADME, microsome; settings: read-out: Stability
[10] = Metabolic stability in dog liver microsomes assessed as parent compound remaining at […] incubated for 5 mins measured up to 60 mins by LC-MS/MS analysis; assay type: ADME, Canis lupus familiaris, microsome; settings: read-out: Stability
[11] = Metabolic stability in rat liver microsomes assessed as parent compound remaining at […] incubated for 5 mins measured up to 60 mins by LC-MS/MS analysis; assay type: ADME, microsome; settings: read-out: Stability
[12] = Metabolic stability in monkey liver microsomes assessed as parent compound remaining at […] incubated for 5 mins measured up to 60 mins by LC-MS/MS analysis; assay type: ADME, Macaca mulatta, microsome; settings: rhesus monkey, read-out: Stability
[13] = Metabolic stability in mouse liver microsomes assessed as parent compound remaining at […] incubated for 5 mins measured up to 60 mins by LC-MS/MS analysis; assay type: ADME, microsome; settings: read-out: Stability

Row | half-life [1] [min] | half-life [2] [min] | other results | Structure (SMILES)
1 | > 200 | 197 |  | CS(=O)(=O)c1ccccc1-c1c[nH]c2c(=O)n(Cc3cc(F)ccc3C#N)c(N3CCC[C@@H](N)C3)nc12
2 | 200 | > 60 | Vd/F [3]: 106 L/kg; Tmax [4]: 8.4 min; CL (Rattus norvegicus [5]): 13.3 L/h/kg; half-life [6]: 328 min; AUCt (Rattus norvegicus [7]): 1.88 µg·h/mL; F (Rattus norvegicus [8]): 10.6% | N#Cc1ccc(F)cc1Cn1c(N2CCC[C@@H](N)C2)nc2cc[nH]c2c1=O
3 | > 200 | 95.2 |  | CS(=O)(=O)c1ccc(-c2c[nH]c3c(=O)n(Cc4cc(F)ccc4C#N)c(N4CCC[C@@H](N)C4)nc23)c(F)c1
4 | 181 | 72.3 |  | N#Cc1ccc(F)cc1Cn1c(N2CCC[C@@H](N)C2)nc2c(-c3ccc(F)cc3)c[nH]c2c1=O
5 | 43.3 | > 200 |  | CC(C)S(=O)(=O)c1ccc(-c2c[nH]c3c(=O)n(Cc4cc(F)ccc4C#N)c(N4CCC[C@@H](N)C4)nc23)cc1
6 | 160 | 47 | Vd/F [3]: 104 L/kg; Tmax [4]: 140 min; CL (Rattus norvegicus [5]): 8.8 L/h/kg; half-life [6]: 473 min; AUCt (Rattus norvegicus [7]): 2.92 µg·h/mL; F (Rattus norvegicus [8]): 33.4% | N#Cc1ccc(F)cc1Cn1c(N2CCC[C@@H](N)C2)nc2c(-c3ccsc3)c[nH]c2c1=O
7 | 133 | 37.5 |  | N#Cc1ccc(F)cc1Cn1c(N2CCC[C@@H](N)C2)nc2c(Br)c[nH]c2c1=O
8 | > 200 | 98.9 |  | CS(=O)(=O)c1cccc(-c2c[nH]c3c(=O)n(Cc4cc(F)ccc4C#N)c(N4CCC[C@@H](N)C4)nc23)c1
9 | 98.2 | 50.3 |  | N#Cc1ccc(F)cc1Cn1c(N2CCC[C@@H](N)C2)nc2c(F)c[nH]c2c1=O
10 | > 200 | > 200 |  | N#Cc1ccc(F)cc1Cn1c(N2CCC[C@@H](N)C2)nc2c(-c3ccc(S(N)(=O)=O)cc3)c[nH]c2c1=O
11 | > 200 | 167 |  | CS(=O)(=O)c1ccc(-c2c[nH]c3c(=O)n(Cc4cc(F)ccc4C#N)c(N4CCC[C@@H](N)C4)nc23)cc1F
12 | > 200 | > 200 |  | CS(=O)(=O)c1ccc(-c2c[nH]c3c(=O)n(Cc4cc(F)ccc4C#N)c(N4CCC[C@@H](N)C4)nc23)cc1
13 | 35.1 | 36.5 |  | N#Cc1ccc(F)cc1Cn1c(N2CCC[C@@H](N)C2)nc2c(-c3cccs3)c[nH]c2c1=O
14 | > 200 | > 200 | remaining at 60 min [9]: > 80%; remaining at 60 min [10]: > 80%; remaining at 60 min [11]: > 80%; Vd/F [3]: 48.2 L/kg; Tmax [4]: 42 min; CL (Rattus norvegicus [5]): 7.66 L/h/kg; half-life [6]: 308 min; remaining at 60 min [12]: > 80%; remaining at 60 min [13]: > 80%; AUCt (Rattus norvegicus [7]): 6.82 µg·h/mL; F (Rattus norvegicus [8]): 46.9% | Cn1c(=O)cc(N2CCC[C@@H](N)C2)n(Cc2cc(F)ccc2C#N)c1=O [TRELAGLIPTIN]
